How the values were obtained:
Assay in all cases: Test D controlled growth environment herbicide test, pre- and postemergence
Type in all cases: in vivo
[1] = tested on: wheat, spring (spring wheat, Triticum aestivum)
Method in brief: (§1)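 Rating is visual, 0–100 scale (100 = complete control), made against untreated plants 14–21 d after treatment in controlled growth conditions. Postemergence sprays went onto 1- to 4-leaf plants in peat medium; preemergence sprays onto silt loam after sowing; formulation included a surfactant.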

[2] = tested on: lambsquarters (Chenopodium album)
Method in brief: as §1

[3] = tested on: bluegrass (annual bluegrass, Poa annua)
Method in brief: as §1

[4] = tested on: buckwheat, wild (wild buckwheat, Polygonum convolvulus)
Method in brief: as §1

[5] = tested on: canarygrass (Phalaris minor)
Method in brief: as §1

[6] = tested on: blackgrass (Alopecurus myosuroides)
Method in brief: as §1

[7] = tested on: barley, winter (winter barley, Hordeum vulgare)
Method in brief: as §1

[8] = tested on: windgrass (Apera spica-venti)
Method in brief: as §1

[9] = tested on: galium (catchweed bedstraw, Galium aparine)
Method in brief: as §1

[10] = tested on: ryegrass, Italian (Italian ryegrass, Lolium multiflorum)
Method in brief: as §1

[11] = tested on: foxtail, green (green foxtail, Setaria viridis)
Method in brief: as §1

[12] = tested on: bromegrass, downy (downy bromegrass, Bromus tectorum)
Method in brief: as §1

[13] = tested on: pigweed (Amaranthus retroflexus)
Method in brief: as §1

[14] = Postemergence, 31 g ai/ha, scale 0 to 100 (0 no effect, 100 complete control)
[15] = Postemergence, 125 g ai/ha, visual rating on scale 0 (no effect) to 100 (complete control), 14 to 21 d
[16] = Postemergence, 250 g ai/ha, scale 0 to 100 (0 no effect, 100 complete control)
[17] = Preemergence, 62 g ai/ha, scale 0 to 100 (0 no effect, 100 complete control)
[18] = Preemergence, 125 g ai/ha, scale 0 to 100 (0 no effect, 100 complete control)
[19] = Preemergence, 250 g ai/ha, scale 0 to 100, 0 no effect, 100 complete control
[20] = postemergence, 62 g ai/ha, scale 0 to 100, 0 no effect, 100 complete control

Which results are given for `Cc1nn(C)c(=O)c(-c2cccc3ccccc23)c1O` [Compound 11, 5-hydroxy-2,6-dimethyl-4-(1-naphthalenyl)-3(2H)-pyridazinone]?
Wheat, Spring plant response rating [1, 14]: 15; Plant response rating, Wheat, Spring [1, 15]: 25; Plant response rating, Wheat, Spring [1, 16]: 25; Plant response rating (scale of 0 to 100), Wheat, Spring ([1]; Preemergence, 31 g ai/ha): 5; Plant response rating, Wheat, Spring [1, 17]: 15; Plant response rating, Wheat, Spring [1, 18]: 25; Plant response rating, Wheat, Spring [1, 19]: 35; Plant response rating, Wheat, Spring [1, 20]: 15; Lambsquarters plant response rating [2, 14]: 60; Plant response rating, Lambsquarters [2, 15]: 80; Plant response rating, Lambsquarters [2, 16]: 85; Plant response rating (scale of 0 to 100), Lambsquarters ([2]; Preemergence, 31 g ai/ha): 25; Plant response rating, Lambsquarters [2, 17]: 35; Plant response rating, Lambsquarters [2, 18]: 100; Plant response rating, Lambsquarters [2, 19]: 100; Plant response rating, Lambsquarters [2, 20]: 80; Bluegrass plant response rating [3, 14]: 5; Plant response rating, Bluegrass [3, 15]: 5; Plant response rating, Bluegrass [3, 16]: 15; Plant response rating (scale of 0 to 100), Bluegrass ([3]; Preemergence, 31 g ai/ha): 10; Plant response rating, Bluegrass [3, 17]: 15; Plant response rating, Bluegrass [3, 18]: 30; Bluegrass plant response rating [3, 19]: 55; Plant response rating, Bluegrass [3, 20]: 5; Buckwheat, Wild plant response rating [4, 14]: 45; Plant response rating, Buckwheat, Wild [4, 15]: 60; Plant response rating, Buckwheat, Wild [4, 16]: 95; Plant response rating (scale of 0 to 100), Buckwheat, Wild ([4]; Preemergence, 31 g ai/ha): 20; Plant response rating, Buckwheat, Wild [4, 17]: 15; Plant response rating, Buckwheat, Wild [4, 18]: 15; Plant response rating, Buckwheat, Wild [4, 19]: 25; Plant response rating, Buckwheat, Wild [4, 20]: 45; Canarygrass plant response rating [5, 14]: 10; Plant response rating, Canarygrass [5, 15]: 30; Plant response rating, Canarygrass [5, 16]: 55; Plant response rating (scale of 0 to 100), Canarygrass ([5]; Preemergence, 31 g ai/ha): 45; Plant response rating, Canarygrass [5, 17]: 55; Plant response rating, Canarygrass [5, 18]: 90; Plant response rating, Canarygrass [5, 19]: 90; Plant response rating, Canarygrass [5, 20]: 20; Blackgrass plant response rating [6, 14]: 25; Plant response rating, Blackgrass [6, 15]: 70; Plant response rating, Blackgrass [6, 16]: 70; Plant response rating (scale of 0 to 100), Blackgrass ([6]; Preemergence, 31 g ai/ha): 5; Plant response rating, Blackgrass [6, 17]: 30; Plant response rating, Blackgrass [6, 18]: 55; Blackgrass plant response rating [6, 19]: 75; Plant response rating, Blackgrass [6, 20]: 40; Plant response rating, Barley, Winter [7, 14]: 20; Plant response rating, Barley, Winter [7, 15]: 25; Plant response rating, Barley, Winter [7, 16]: 40; Plant response rating (scale of 0 to 100), Barley, Winter ([7]; Preemergence, 31 g ai/ha): 5; Plant response rating, Barley, Winter [7, 17]: 5; Plant response rating, Barley, Winter [7, 18]: 5; Barley, Winter plant response rating [7, 19]: 20; Plant response rating, Barley, Winter [7, 20]: 20; Windgrass plant response rating [8, 14]: 10; Plant response rating, Windgrass [8, 15]: 15; Plant response rating, Windgrass [8, 16]: 20; Plant response rating (scale of 0 to 100), Windgrass ([8]; Preemergence, 31 g ai/ha): 25; Plant response rating, Windgrass [8, 17]: 35; Plant response rating, Windgrass [8, 18]: 55; Plant response rating, Windgrass [8, 19]: 75; Plant response rating, Windgrass [8, 20]: 10; Galium plant response rating [9, 14]: 85; Plant response rating, Galium [9, 15]: 90; Plant response rating, Galium [9, 16]: 90; Plant response rating (scale of 0 to 100), Galium ([9]; Preemergence, 31 g ai/ha): 70; Plant response rating, Galium [9, 17]: 80; Plant response rating, Galium [9, 18]: 100; Plant response rating, Galium [9, 19]: 100; Plant response rating, Galium [9, 20]: 85; Ryegrass, Italian plant response rating [10, 14]: 80; Plant response rating, Ryegrass, Italian [10, 15]: 85; Plant response rating, Ryegrass, Italian [10, 16]: 90; Plant response rating (scale of 0 to 100), Ryegrass, Italian ([10]; Preemergence, 31 g ai/ha): 85; Plant response rating, Ryegrass, Italian [10, 17]: 90; Plant response rating, Ryegrass, Italian [10, 18]: 100; Plant response rating, Ryegrass, Italian [10, 19]: 100; Plant response rating, Ryegrass, Italian [10, 20]: 85; Foxtail, Green plant response rating [11, 14]: 5; Plant response rating, Foxtail, Green [11, 15]: 65; Plant response rating, Foxtail, Green [11, 16]: 70; Plant response rating (scale of 0 to 100), Foxtail, Green ([11]; Preemergence, 31 g ai/ha): 10; Plant response rating, Foxtail, Green [11, 17]: 10; Plant response rating, Foxtail, Green [11, 18]: 15; Plant response rating, Foxtail, Green [11, 19]: 65; Plant response rating, Foxtail, Green [11, 20]: 25; Bromegrass, Downy plant response rating [12, 14]: 15; Plant response rating, Bromegrass, Downy [12, 15]: 25; Plant response rating, Bromegrass, Downy [12, 16]: 50; Plant response rating (scale of 0 to 100), Bromegrass, Downy ([12]; Preemergence, 31 g ai/ha): 5; Plant response rating, Bromegrass, Downy [12, 17]: 5; Plant response rating, Bromegrass, Downy [12, 18]: 20; Plant response rating, Bromegrass, Downy [12, 19]: 55; Plant response rating, Bromegrass, Downy [12, 20]: 15; Pigweed plant response rating [13, 14]: 35; Plant response rating, Pigweed [13, 15]: 95; Plant response rating, Pigweed [13, 16]: 100; Plant response rating (scale of 0 to 100), Pigweed ([13]; Preemergence, 31 g ai/ha): 0; Plant response rating, Pigweed [13, 17]: 0; Plant response rating, Pigweed [13, 18]: 98; Plant response rating, Pigweed [13, 19]: 100; Plant response rating, Pigweed [13, 20]: 65

From patent US10597388B2, “Pyridazinone herbicides” (FMC CORPORATION, priority 2014, dated 2020)
